Measured values from PubChem BioAssay AID2060508 (Molecular Pharmacology Branch, DTP, NCI, 2025).

Tested on: 454973-116-R2-J3-PDC spheroids, viability, % test/control
Experiment: Anticancer human tumor 454973-116-R2-J3-PDC patient-derived pancreatic carcinoma cell line growth inhibition [GQUAD]
Details: spheroids with HUVEC and MSC; for IC50: curve of first compound; for viability, T/C: stronger effect = lower value
Text: DNA G-quadruplex Stabilizer Agents in Combinations in Complex Spheroids
A high-throughput screen of multi-cell type tumor spheroids was designed to identify active combinations of DNA G-quadruplex stabilizer agents and targeted small molecules. Complex spheroids include a stromal component modeled by human endothelial cells (HUVEC) and fibroblasts modeled by human mesenchymal stem cells (MSCs). The concentration ranges selected for each drug and investigational agent were based upon clinically achievable concentrations if the clinical Cmax of the agent was known.
Compounds. The drugs and investigational agents: pidnarulex (CX-5461; NSC782164), APTO-253 (NSC789042), BRACO-19 (NSC847499), peposertib (NSC802822), ceralasertib (NSC780249), elimusertib (NSC800525), camonsertib (NSC841442), AZD-1390 (NSC803789), olaparib (NSC753686), talazoparib (NSC767125), ART-558 (NSC835418), sotorasib (NSC818433), MRTX-1133 (NSC836407), SN-38 (NSC673596), topotecan (NSC609699), etoposide (NSC141540), doxorubicin (NSC123127), gemcitabine (NSC613327), 5-fluorouracil (NSC19893), paclitaxel (NSC125973), vemurafenib (NSC761431), panobinostat (NSC761190), R-306465 (JNJ-16241199; NSC773264), adavosertib (NSC754352), TP-3654 (NSC805149), carboplatin (NSC241240), KSQ-4279 (NSC840948), and staurosporine (NSC755774) were obtained from the National Cancer Institute (NCI) Developmental Therapeutics Program Chemical Repository (34). The FDA-approved anticancer drug set is available from the NCI Developmental Therapeutics Program. […] The stock solutions were prepared in dimethyl sulfoxide (DMSO, Sigma-Aldrich, St. Louis, MO, cat. D2650) at 800-fold the tested concentration and stored at -70 degrees C prior to their use. All drugs and investigational agents were tested over a range starting from a high concentration at or near the clinical Cmax and decreasing in half-log increments. If the clinical Cmax for an agent had not been determined, the highest concentration tested was 10 microM.
2.3 Cell Culture. All cells were maintained in an incubator at 37 degrees C and 5% CO2 with 95% humidity. The PDC lines were cultured according to standard operating procedures established by the NCI PDMR. All PDCs were thawed and cultured in Matrigel-coated flasks prepared with a working solution of 1X Ham's F-12 nutrient mix, without supplementation (Invitrogen, cat. 11765054), 100 U/mL penicillin-streptomycin (Invitrogen, cat. 15140122), and 2.5% Matrigel (Corning Inc., cat. 354248) for the first three passages. The 857933-349-R-J2-PDC line was cultured in 6C/Colon 1B media, which includes advanced DMEM/F-12 (Thermo Fisher Scientific, cat. 12634028), 10 mM HEPES (Thermo Fisher Scientific, cat. 15630080), 1X GlutaMAX supplement (Thermo Fisher Scientific, cat. 35050061), 0.1 mg/mL primocin (InvivoGen, cat. ant-pm-2), 10% defined fetal bovine serum, heat inactivated (HyClone Laboratories Inc., cat. SH30070.03HI), 50% L-WRN conditioned media (ATCC, cat. CRL-3276), 1.25 mM N-Acetyl-L-cysteine (Sigma-Aldrich, cat. A9165), 10 mM nicotinamide (Sigma-Aldrich, cat. N0636), 1X B-27 supplement (Thermo Fisher Scientific, cat. 17504044), 1X N-2 supplement (Thermo Fisher Scientific, cat. 17502048), 10 microM Y-27632 dihydrochloride (Tocris Bioscience, cat. 1254), and 50 ng/mL human EGF recombinant protein (Thermo Fisher Scientific, cat. PHG0311). The 485176-168-R4-J1-PDC line was cultured in Panc media, which includes all 6C/Colon 1B media components plus 100 ng/mL human FGF-10 (Thermo Fisher Scientific, cat. 100-26), 500 nM SB-431542 (Selleckchem, cat. S1067), and gastrin (Tocris, cat. 3006).
[…]
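Further: spheroids exposed to compounds for seven days.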

For `Cn1ncnc1[C@H]1c2n[nH]c(=O)c3cc(F)cc(c23)N[C@@H]1c1ccc(F)cc1` + CN(C)c1ccc(Nc2c3ccc(NC(=O)CCN4CCCC4)cc3nc3cc(NC(=O)CCN4CCCC4)ccc23)cc1, the IC50 (second compound 0.0316 µM) was > 316 nM, the IC50 (second compound 0.1 µM) was > 316 nM and the IC50 (second compound 0.316 µM) was > 316 nM. For the same molecule, the IC50 (second compound 1 µM) was > 316 nM, the IC50 (second compound 3.16 µM) was > 316 nM and the IC50 (second compound 10 µM) was > 316 nM. It also gave a viability, T/C (second compound 0.0316 µM, first compound 0.000999 µM) of 106%, a viability, T/C (second compound 0.0316 µM, first compound 0.00316 µM) of 94.7% and a viability, T/C (second compound 0.0316 µM, first compound 0.00999 µM) of 94.2%. For the same molecule, the viability, T/C (second compound 0.0316 µM, first compound 0.0316 µM) was 87%, the viability, T/C (second compound 0.0316 µM, first compound 0.0999 µM) was 90.9% and the viability, T/C (second compound 0.0316 µM, first compound 0.316 µM) was 80.7%. The viability, T/C (second compound 0.1 µM, first compound 0.000999 µM) was 103%, the viability, T/C (second compound 0.1 µM, first compound 0.00316 µM) was 94% and the viability, T/C (second compound 0.1 µM, first compound 0.00999 µM) was 96.6%. For the same molecule, the viability, T/C (second compound 0.1 µM, first compound 0.0316 µM) was 89.4%, the viability, T/C (second compound 0.1 µM, first compound 0.0999 µM) was 81.6% and the viability, T/C (second compound 0.1 µM, first compound 0.316 µM) was 72.3%. It also gave a viability, T/C (second compound 0.316 µM, first compound 0.000999 µM) of 95.2%, a viability, T/C (second compound 0.316 µM, first compound 0.00316 µM) of 97.6% and a viability, T/C (second compound 0.316 µM, first compound 0.00999 µM) of 87.3%. For the same molecule, the viability, T/C (second compound 0.316 µM, first compound 0.0316 µM) was 91.7%, the viability, T/C (second compound 0.316 µM, first compound 0.0999 µM) was 77.7% and the viability, T/C (second compound 0.316 µM, first compound 0.316 µM) was 71.6%. The viability, T/C (second compound 1 µM, first compound 0.000999 µM) was 90%, the viability, T/C (second compound 1 µM, first compound 0.00316 µM) was 84.7% and the viability, T/C (second compound 1 µM, first compound 0.00999 µM) was 90.8%. It also gave a viability, T/C (second compound 1 µM, first compound 0.0316 µM) of 66.4%, a viability, T/C (second compound 1 µM, first compound 0.0999 µM) of 79.8% and a viability, T/C (second compound 1 µM, first compound 0.316 µM) of 64.3%. The viability, T/C (second compound 3.16 µM, first compound 0.000999 µM) was 90.8%, the viability, T/C (second compound 3.16 µM, first compound 0.00316 µM) was 89.9% and the viability, T/C (second compound 3.16 µM, first compound 0.00999 µM) was 80.8%. It also gave a viability, T/C (second compound 3.16 µM, first compound 0.0316 µM) of 62.8%, a viability, T/C (second compound 3.16 µM, first compound 0.0999 µM) of 82% and a viability, T/C (second compound 3.16 µM, first compound 0.316 µM) of 64.6%. The viability, T/C (second compound 10 µM, first compound 0.000999 µM) was 76.1%, the viability, T/C (second compound 10 µM, first compound 0.00316 µM) was 74.6% and the viability, T/C (second compound 10 µM, first compound 0.00999 µM) was 72.5%. For the same molecule, the viability, T/C (second compound 10 µM, first compound 0.0316 µM) was 63.8%, the viability, T/C (second compound 10 µM, first compound 0.0999 µM) was 57.8% and the viability, T/C (second compound 10 µM, first compound 0.316 µM) was 58.9%.
